What was measured:
H1703 oncospheres = assay: H1703 oncosphere growth, 10 days, EZQuant; assay type: cell-based, human; conditions: for cell count of H1703 oncospheres: compounds replenished every 2 days
Method: Duplicate wells were treated with the indicated concentrations of compound for 10 days. Compounds were replenished in the media every 2 days. Cell number was quantified at Day 10 using EZQuant (Alstem).

HeLa cells = assay: HeLa cell proliferation, 24-well plates, EZQuant; assay type: cell-based; parameters: effect on proliferation of HeLa cells: dose or concentration left out as unconfirmed
Method: 24-well plate; Drugs replenished every 2 days; viable cells quantified with EZQuant; STS=Staurosporine, a positive control for cell killing. […] HeLa cells were seeded at 0.5×10^5 cells/well in 24-well plates and proliferation was assayed as described for FIG. 5. Each compound was present […].

[1] = system: AsPC1 human pancreatic cancer cells; assay: AsPC1 cell growth, 96-well plates, 6 days, EZQuant; assay type: cell-based; conditions: 750 cells/well
Method: (§1) AsPC1 human pancreatic cancer cells (FIG. 5A) or T47D human breast cancer cells (FIG. 5B) were seeded at 750 cells/well in 96 well plates and grown for 6 days in the presence of the indicated concentrations of TDI-3410 or DMSO. Compounds were added on Day 0, and were replenished in the media every 2 days. Each condition was represented by duplicate wells. Cell number was quantified at Day 6 using EZQuant (Alstem).

[2] = system: T47D human breast cancer cells; assay: T47D cell growth, 96-well plates, 6 days, EZQuant; assay type: cell-based; conditions: 750 cells/well
Method: as §1

Hhat = Hhat (Homo sapiens, UniProt Q5VTY9); assay: Hhat-mediated Shh palmitoylation in COS-1 cells transfected with Shh and Hhat ([125I]-iodopalmitate labeling); assay type: cell-based; parameters: dose or concentration left out as unconfirmed; conditions: 4 hr labeling at 37° C.
Sequence of Hhat (Q5VTY9 whole entry): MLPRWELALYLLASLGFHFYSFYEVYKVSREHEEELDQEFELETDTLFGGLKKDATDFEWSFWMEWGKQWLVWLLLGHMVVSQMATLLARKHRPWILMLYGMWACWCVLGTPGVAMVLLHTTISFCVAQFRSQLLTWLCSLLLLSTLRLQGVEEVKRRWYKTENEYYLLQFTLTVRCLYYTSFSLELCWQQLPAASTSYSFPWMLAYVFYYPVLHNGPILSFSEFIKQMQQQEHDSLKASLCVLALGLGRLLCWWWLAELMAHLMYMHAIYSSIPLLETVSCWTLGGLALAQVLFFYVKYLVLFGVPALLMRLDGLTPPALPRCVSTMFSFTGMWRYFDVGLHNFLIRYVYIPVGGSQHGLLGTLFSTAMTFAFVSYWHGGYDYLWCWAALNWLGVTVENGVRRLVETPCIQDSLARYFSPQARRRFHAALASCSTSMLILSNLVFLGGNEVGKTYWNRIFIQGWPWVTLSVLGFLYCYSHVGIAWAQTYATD
Method: FIGS. 1A-1B. […] FIG. 1A. COS-1 cells were transfected with cDNA plasmids encoding Shh and Hhat (see, e.g., Buglino, J. A., and Resh, M. D. “Hhat is a palmitoyl acyltransferase with specificity for N-palmitoylation of sonic hedgehog” J. Biol. Chem. 2008, 283, 22076-22088; Petrova, E., Rios-Esteves, J., Ouerfelli, O., Glickman, J. F., and Resh, M. D. “Inhibitors of Hedgehog acyltransferase block Sonic Hedgehog signaling” Nat Chem Biol 2013, 9, 247-249). 48 hours after transfection, cells were starved for 1 hour in DMEM containing 2% dialyzed fetal calf serum and then labeled for 4 hr at 37° C. with […] [^125I]-iodopalmitate in the presence of […] of the indicated compound or DMSO. Cell lysates were immunoprecipitated with anti-Shh antibody, analyzed by SDS-PAGE and dried gels were subjected to Phosphorimaging. The amount of radiolabel incorporated into Shh was quantified and compared to that obtained for DMSO (normalized to 1.0). % Inhibition=1−(signal in drug treated sample/signal in DMSO sample)×100. FIG. 1B. Structure of RU-SKI 43 (see, e.g., Petrova, E., Rios-Esteves, J., Ouerfelli, O., Glickman, J. F., and Resh, M. D. “Inhibitors of Hedgehog acyltransferase block Sonic Hedgehog signaling” Nat Chem Biol 2013, 9, 247-249).

[3] = system: AsPC1 human pancreatic cancer cells; assay: AsPC1 cell growth, 24-well plates, 6 days, Crystal violet staining; assay type: cell-based; conditions: ASPC1, 144 h, FIG. 2D inhibition curve
Method: FIGS. 2A-2D show inhibition of the growth of AsPC1 cells by TDI compounds. […] Compounds were added on Day 0, and were replenished in the media every 2 days. Each condition was represented by duplicate wells. Cell number was quantified by Crystal violet staining. FIG. 2A. Growth curve. FIG. 2B. Crystal violet staining of a typical set of 6 wells. FIG. 2C. Bar graph depicting % inhibition of cell proliferation at Day 6 for each compound, compared to DMSO treated cells. % Inhibition was calculated as in FIG. 1A.

purified Hhat = biological target: T1, purified Hhat (Homo sapiens, UniProt Q5VTY9); assay: Pulldown assay: purified Hhat + 125I-palmitoyl CoA + Shh peptide; assay type: biochemical; conditions: 1 hr at 20° C.; read-out: IC50, Shh palmitoylation by purified Hhat
T1 construct: HA; made in house; host or cells: 293FT cells
T1 sequence (Q5VTY9 whole entry): as above
Method: FIG. 3. TDI-003410 inhibits Shh palmitoylation by purified Hhat. Pulldown assay: Purified Hhat+^125I-palmitoyl CoA+Shh peptide. […] Hhat was purified to homogeneity from 293FT cells transfected with a cDNA encoding HA-tagged Hhat, as described by Buglino and Resh (see, e.g., Buglino, J. A., and Resh, M. D. “Hhat is a palmitoyl acyltransferase with specificity for N-palmitoylation of sonic hedgehog” J. Biol. Chem. 2008, 283, 22076-22088). Purified Hhat was incubated with ^125I-Iodopalmitoyl CoA and a C-terminally biotinylated Shh peptide (representing the first 10 amino acids of mature Shh) for 1 hr at 20° C. in the presence of the indicated concentrations of TDI-3410. The reaction was quenched, and biotinylated peptides were captured on streptavidin-agarose beads by repeated centrifugation and washing. The amount of 125 radioactivity remaining in the bead pellet was determined in a g counter. % Inhibition was calculated as in FIG. 1A.

membrane-bound Hhat = biological target: T2, membrane-bound Hhat (Homo sapiens, UniProt Q5VTY9); assay: Shh palmitoylation by membrane-bound Hhat (P100 membranes, SPA); assay type: biochemical; conditions: 1 hr at 20° C., triplicate
T2 construct: HA; expressed in transfected cells; host or cells: 293FT cells (P100 microsomal membranes)
T2 sequence (Q5VTY9 whole entry): as above
Method: Microsomal membranes (P100) were prepared from 293FT cells transfected with a cDNA encoding HA-tagged Hhat as described (see, e.g., Buglino, J. A., and Resh, M. D. “Hhat is a palmitoyl acyltransferase with specificity for N-palmitoylation of sonic hedgehog” J. Biol. Chem. 2008, 283, 22076-22088; Petrova, E., Rios-Esteves, J., Ouerfelli, O., Glickman, J. F., and Resh, M. D. “Inhibitors of Hedgehog acyltransferase block Sonic Hedgehog signaling” Nat Chem Biol 2013, 9, 247-249). The protocol described by Petrova et al. (Nat Chem Biol 2013, 9, 247-249) was used to analyze Shh palmitoylation. Briefly, P100 membranes were incubated with ^125I-Iodopalmitoyl CoA and a C-terminally biotinylated Shh peptide in 384-well plates in the presence of the indicated concentrations of TDI-3410 for 1 hr at 20° C. Biotinylated peptides were captured on streptavidin-coated SPA (Scintillation Proximity Assay) beads and the amount of ^125I radioactivity was quantified on a Perkin-Elmer Trilux reader. Each data point represents the average of triplicate samples. % Inhibition was calculated as in FIG. 1A.

[4] = system: oncospheres derived from AsPC-1 human pancreatic cancer cells; assay: AsPC-1 oncosphere growth, 7 days, EZQuant; assay type: cell-based; conditions: ASPC1, drug replenished every 2 days, read-out: IC50, cell proliferation of AsPC-1 oncospheres
Method: AsPC-1 pancreatic cancer cells were grown on ultra-low attachment plates for 7-10 days in serum-free medium containing EGF, FGF, Insulin and N-2 and B-27 supplement to form oncospheres, which represent cancer stem cells. Oncosphere cultures were expanded and replated, and were used after 7 days in 2° culture. Oncospheres grown in 24-well plates were treated with TDI-3410 or vehicle; drug was replenished every 2 days. 7 days later, oncospheres were dissociated with trypsin and total viable cell number was determined using EZQuant.

SMILES	cell count of H1703 oncospheres (H1703 oncospheres)	concentration above which growth of HeLa cells is inhibited (HeLa cells; FIG. 6B) [µM]	effect on proliferation of HeLa cells (HeLa cells; HeLa cells express no detectable Hhat)	IC50 (HeLa cells; Homo sapiens, HeLa, FIG. 6B inhibition curve, read-out: IC50, growth of HeLa cells) [µM]	growth of AsPC1 human pancreatic cancer cells [1]	growth of T47D human breast cancer cells [2]	Hhat-mediated Shh palmitoylation (Hhat)	IC50 [3] [nM]	IC50 (H1703 oncospheres; Homo sapiens, NCI-H1703, 240 h) [nM]	IC50 (purified Hhat) [nM]	IC50 (membrane-bound Hhat) [nM]	IC50 [4] [nM]
CCC(C)CNCC(=O)N1CCc2sccc2C1COc1cccc(C)c1 (stereo not shown) [RU-SKI 43, reference compound]	reduction in cell count with increased concentration	–	–	–	–	–	–	–	–	–	–	–
O=C(c1ccc2nccn2c1)N1CCc2sc(Cl)cc2[C@H]1c1ccc(F)cc1 [TDI-003410]	reduction in cell count with increased concentration	> 20	little to no effect	28.5	inhibits the growth	inhibits the growth	blocks Hhat-mediated Shh palmitoylation	2680	1400	1500	1780	1800
